Test results from patent US8951563B2, “Antibiotic drug delivery and potentiation” (Technion Research & Development Foundation Limited, priority 2009, dated 2015).

Experiments:
Format in all cases: cell-based
E. coli 14182 = experiment: Antibiotic MIC / chemo-sensitization checkerboard with OAK, E. coli 14182; conditions: for MIC: Escherichia coli, OAK: None; for FIC: antibiotic combined with C12K-7α8
Experimental: (§1) Bacteria were grown overnight in LB growth medium and diluted 10,000-fold in same medium.
(§2) Inhibition of proliferation was determined by optical density measurements (620 nm) after incubation overnight at 37° C.
(§3) Synergistic effect of the combinations was assessed by determination of the fractional inhibitory concentration (FIC) where FIC=(MIC OAK in combination with antibiotic)/(MIC OAK alone)+(MIC antibiotic in combination)/(MIC antibiotic alone). Synergy was determined for FIC 0.5.

E. coli 14384 = experiment: Antibiotic MIC / chemo-sensitization checkerboard with OAK, E. coli 14384; conditions: for MIC: Escherichia coli; for FIC: antibiotic combined with C12K-7α8
Experimental: as §1, §2, §3

E. coli U-16329 = experiment: Antibiotic MIC / chemo-sensitization checkerboard with OAK, E. coli U-16329; conditions: for MIC: Escherichia coli, U16329, OAK: None; for FIC: antibiotic combined with C12K-7α8
Experimental: as §1, §2, §3

E. coli U-16327 = experiment: Antibiotic MIC / chemo-sensitization checkerboard with OAK, E. coli U-16327; conditions: for MIC: Escherichia coli, U16327, OAK: None; for FIC: antibiotic combined with C12K-7α8
Experimental: as §1, §2, §3

[1] = test system: E. coli AG100, wild type (efflux+); conditions: sub-MIC C12K-7α8
Experimental: as §1, §3

[2] = test system: E. coli AG100A, ΔacrAB (efflux−); conditions: sub-MIC C12K-7α8
Experimental: as §1, §3

| Molecule | Antibiotic MIC in presence of OAK (E. coli 14182; +1.7 μg/ml C12K-7α8 (¼ MIC)) [µg/mL] | Antibiotic MIC in presence of OAK (E. coli 14182; +3.5 μg/ml C12K-7α8 (½ MIC)) [µg/mL] | Antibiotic MIC in presence of OAK (E. coli 14182; +[…] C12K-7α8 (⅓ MIC)) [µg/mL] | MIC (E. coli 14182) [µg/mL] | Antibiotic MIC in presence of OAK (E. coli 14384; +1.7 μg/ml C12K-7α8 (¼ MIC)) [µg/mL] | Antibiotic MIC in presence of OAK (E. coli 14384; +3.5 μg/ml C12K-7α8 (½ MIC)) [µg/mL] | Antibiotic MIC in presence of OAK (E. coli 14384; +[…] C12K-7α8 (⅓ MIC)) [µg/mL] | MIC (E. coli 14384; OAK: None) [µg/mL] | Antibiotic MIC in presence of OAK (E. coli U-16329; +1.7 μg/ml C12K-7α8 (¼ MIC)) [µg/mL] | Antibiotic MIC in presence of OAK (E. coli U-16329; +3.5 μg/ml C12K-7α8 (½ MIC)) [µg/mL] | Antibiotic MIC in presence of OAK (E. coli U-16329; +[…] C12K-7α8 (⅓ MIC)) [µg/mL] | MIC (E. coli U-16329) [µg/mL] | FIC (E. coli U-16329) | Antibiotic MIC in presence of OAK (E. coli U-16327; +1.7 μg/ml C12K-7α8 (¼ MIC)) [µg/mL] | Antibiotic MIC in presence of OAK (E. coli U-16327; +3.5 μg/ml C12K-7α8 (½ MIC)) [µg/mL] | Antibiotic MIC in presence of OAK (E. coli U-16327; +[…] C12K-7α8 (⅓ MIC)) [µg/mL] | MIC (E. coli U-16327) [µg/mL] | FIC [1] | FIC [2] | FIC (E. coli 14182) | also measured |
| --- | --- | --- | --- | --- | --- | --- | --- | --- | --- | --- | --- | --- | --- | --- | --- | --- | --- | --- | --- | --- | --- |
| CC1(C)S[C@@H]2[C@H](NC(=O)Cc3ccccc3)C(=O)N2[C@H]1C(=O)O [Penicillin G, penicillin G] | >512 | >512 | >512 | > 512 | >512 | >512 | >512 | > 512 | 256 | 128 to 256 | 256 | 256 | 1 | >512 | 512 | >512 | > 512 | 0.58 | 1.0 |  |  |
| CCN1CCN(C(=O)N[C@@H](C(=O)N[C@@H]2C(=O)N3[C@@H]2SC(C)(C)[C@@H]3C(=O)O)c2ccccc2)C(=O)C1=O [Piperacillin, piperacillin] | >512 | 64 | >512 | 512 | 256 to 512 | 128 | 256 to 512 | 256 to 512 | 128 to 256 | 64 | 128 | 256 | 0.75 | 256 | 64 | 128 to 256 | 256 | 0.75 |  | 0.63 | FIC (E. coli 14384): 0.63; FIC (E. coli U-16327): 0.63 |
| CO[C@H]1/C=C/O[C@@]2(C)Oc3c(C)c(O)c4c(O)c(c(/C=N/N5CCN(C)CC5)c(O)c4c3C2=O)NC(=O)/C(C)=C\C=C\[C@H](C)[C@H](O)[C@@H](C)[C@@H](O)[C@@H](C)[C@H](OC(C)=O)[C@@H]1C [Rifampin, rifampicin] | 4 | 0.25 | 2 | 16 | 1 | 0.03 | 0.06 to 0.13 | 8 | 4 | 1 | 2 | 16 | 0.46 | 2 | 0.25 | 1 | 8 to 16 | 0.46 | 0.75 | 0.46 | FIC (E. coli 14384): 0.31; FIC (E. coli U-16327): 0.38 |
| gentamicin [Gentamycin] |  | 64 to 128 |  |  | 4 | 2 | 2 to 4 |  |  |  |  |  |  | 4 | 1 to 2 | 2 |  | 1.0 | 1.0 | 1 | Antibiotic MIC (E. coli 14384; OAK: None): 4 µg/mL; FIC (E. coli 14384): 1; Antibiotic MIC (E. coli U-16327; OAK: None): 4 µg/mL; FIC (E. coli U-16327): 0.75 |
